We go through one substance from patent US20230265157A1, “MHC MULTIMER EXPRESSION CONSTRUCTS AND USES THEREOF” (priority 2020, published 2023).

This assay concerns WT-1-specific T cells. Kind of assay: Specific cell staining / titration on WT-1-specific T cells. It counts as cell-based. The note with it: untreated, digested and WT-1-exchanged tetramers at 1 nM and 20 nM. From the text: The amino acid sequence of the Y84A HLA alpha chain is shown in SEQ ID NO: 321. This mutation is known in the art to stabilize binding of the tethered peptide by reducing steric conflict with the peptide linker.

Regarding Y84A variant of the A*02:01 tetramer, the “staining of NLV- and WT-1-specific CD8+ T cells” value is recorded as “converting NLV reactivity to WT-1 reactivity”.
